# From US6730792B2, “β3 adrenergic agonists” (Eli Lilly and Company, priority 2000, dated 2004)
# Target: T1, human β3 adrenergic receptor (Homo sapiens, UniProt P13945)
# T1 construct: expressed in transfected cells; host or cells: DXB-11 Chinese hamster ovary (CHO) cell line, stably transfected (phd expression vector)
# Assay: whole cell receptor coupled c-AMP assay, human β3 receptor in CHO cells (EC50, Emax relative to isoproterenol)
# Assay type: cell-based
# Details: Emax ± SEM; average of at least 3 runs except as otherwise indicated; tested as the isolated form listed
# Procedure, shortened: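 Stably transfected DXB-11 CHO cells (20,000/well) were exposed to compound for 20 min at 37 °C in HBSS/HEPES buffer with 1 mM IBMX, pH 7.4. cAMP was measured by SPA. EC50 came from a four-parameter logistic fit, and Emax is the maximal response as a percentage of isoproterenol's.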
# T1 sequence (P13945 whole entry): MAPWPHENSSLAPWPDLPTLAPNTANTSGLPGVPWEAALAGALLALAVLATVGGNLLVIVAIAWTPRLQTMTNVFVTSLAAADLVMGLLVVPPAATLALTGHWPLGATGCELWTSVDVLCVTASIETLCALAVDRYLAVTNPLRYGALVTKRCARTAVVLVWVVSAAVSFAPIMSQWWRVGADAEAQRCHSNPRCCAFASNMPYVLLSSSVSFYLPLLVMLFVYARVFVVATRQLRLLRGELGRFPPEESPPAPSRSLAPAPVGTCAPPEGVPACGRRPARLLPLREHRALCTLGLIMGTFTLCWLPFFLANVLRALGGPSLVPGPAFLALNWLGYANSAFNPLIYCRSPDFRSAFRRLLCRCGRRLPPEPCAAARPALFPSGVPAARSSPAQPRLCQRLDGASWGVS
row,SMILES,Emax (%) ± SEM
1,CC(C)(Cc1ccc(Oc2ccc(C#N)nc2)cc1)NC[C@H](O)COc1ccccc1-c1ccon1.Cl [Example 300],52.2 ± 5.9%
2,CC(C)(Cc1ccc(Oc2ccccc2C(N)=O)cc1)NC[C@H](O)COc1ccccc1-c1ccon1.Cl [Example 301],69.2 ± 1.2%

# Same assay, conditions: Emax ± standard error of the mean; average of at least 3 runs except where n = 1; compound tested in the isolated form listed
row,SMILES,Emax (%) ± SEM
1,CC(C)(Cc1ccc(Oc2ccc(S(N)(=O)=O)cc2F)cc1)NC[C@H](O)COc1ccccc1-c1nccs1.O=C(O)C(F)(F)F [Example 226],37.8 ± 9.2%
2,CC(C)(Cc1ccc(Oc2ccccc2C(N)=O)cc1)NC[C@H](O)COc1ccc(F)cc1-c1cccs1.O=C(O)C(F)(F)F [Example 227],51.3 ± 10.8%
3,CC(C)(Cc1ccc(Oc2ccccc2C(N)=O)cc1)NC[C@H](O)COc1cccc(F)c1-c1cccs1.O=C(O)C(F)(F)F [Example 228],28.9 ± 3.4%
4,CC(C)(Cc1ccc(Oc2ncccc2C#N)cc1)NC[C@H](O)COc1ccccc1-c1cscn1.Cl [Example 239],49.8 ± 4.5%
5,CC(C)(Cc1ccc(Oc2ncccc2C(N)=O)cc1)NC[C@H](O)COc1ccccc1-c1cscn1.Cl [Example 240],65.7 ± 3.8%
6,CC(C)(Cc1ccc(Oc2cccnc2C#N)cc1)NC[C@H](O)COc1ccccc1-c1cscn1.Cl [Example 241],47.0 ± 2.5%
7,CC(C)(Cc1ccc(Oc2cccnc2C(N)=O)cc1)NC[C@H](O)COc1ccccc1-c1cscn1.Cl [Example 242],55.9 ± 4.0%
8,CC(C)(Cc1ccc(Oc2ccccc2C#N)cc1)NC[C@H](O)COc1ccccc1-c1cscn1.Cl [Example 243],47.9 ± 3.5%
9,CC(C)(Cc1ccc(Oc2ccccc2C(N)=O)cc1)NC[C@H](O)COc1ccccc1-c1cscn1.Cl [Example 244],66.6 ± 5.7%
10,CC(C)(Cc1ccc(Oc2cccc(Cl)c2C#N)cc1)NC[C@H](O)COc1ccccc1-c1cscn1.Cl [Example 245],56.1 ± 2.9%
11,CC(C)(Cc1ccc(Oc2cccc(Cl)c2C(N)=O)cc1)NC[C@H](O)COc1ccccc1-c1cscn1.Cl [Example 246],52.1 ± 2.4%
12,CC(C)(Cc1ccc(Oc2ccc(C#N)cn2)cc1)NC[C@H](O)COc1ccccc1-c1cscn1.Cl [Example 247],45.4 ± 3.4%
13,CC(C)(Cc1ccc(Oc2ccc(C(N)=O)cn2)cc1)NC[C@H](O)COc1ccccc1-c1cscn1.Cl [Example 248],47.5 ± 4.8%
14,CC(C)(Cc1ccc(Oc2ccc(S(C)(=O)=O)cc2)cc1)NC[C@H](O)COc1ccccc1-c1cscn1.Cl [Example 249],35.9 ± 2.9%
15,CC(C)(Cc1ccc(Oc2ccc(S(C)(=O)=O)cc2F)cc1)NC[C@H](O)COc1ccccc1-c1cscn1.Cl [Example 250],31.6 ± 3.1%
16,CC(C)(Cc1ccc(Oc2ccc(S(N)(=O)=O)cc2F)cc1)NC[C@H](O)COc1ccccc1-c1cscn1.Cl [Example 251],33.4 ± 5.7%
17,CC(C)(Cc1ccc(Oc2ccc(C(N)=O)cc2F)cc1)NC[C@H](O)COc1ccccc1-c1cscn1.Cl [Example 252],38.4 ± 3.8%
18,CC(C)(Cc1ccc(Oc2ccc(C(N)=O)cc2Cl)cc1)NC[C@H](O)COc1ccccc1-c1cscn1.Cl [Example 253],37.6 ± 2.7%
19,CC(C)(Cc1ccc(Oc2ncc(C(F)(F)F)cc2Cl)cc1)NC[C@H](O)COc1ccccc1-c1cscn1.Cl [Example 254],50.5 ± 0.8%
20,CC(C)(Cc1ccc(Oc2cnccn2)cc1)NC[C@H](O)COc1ccccc1-c1cscn1.Cl [Example 256],50.6 ± 1.8%
21,CC(C)(Cc1ccc(Oc2ncccn2)cc1)NC[C@H](O)COc1ccccc1-c1cscn1.Cl [Example 257],49.9 ± 3.4%
22,CC(C)(Cc1ccc(Oc2ccc(C#N)s2)cc1)NC[C@H](O)COc1ccccc1-c1cscn1.Cl [Example 258],48.4 ± 5.6%

row,SMILES,Emax (%) ± SEM
1,CC(C)(Cc1ccc(Oc2ccc(C(N)=O)s2)cc1)NC[C@H](O)COc1ccccc1-c1cscn1.Cl [Example 259],54.1 ± 3.9%
2,CC(C)(Cc1ccc(Oc2ccc(C#N)o2)cc1)NC[C@H](O)COc1ccccc1-c1cscn1.Cl [Example 260],38.2 ± 2.0%
3,CC(C)(Cc1ccc(Oc2ccc(C(N)=O)o2)cc1)NC[C@H](O)COc1ccccc1-c1cscn1.Cl [Example 261],52.3 ± 6.6%
4,Cc1nc(-c2ccccc2OC[C@@H](O)CNC(C)(C)Cc2ccc(Oc3ncccc3C(N)=O)cc2)[nH]c1C.Cl.Cl [Example 262],63.6 ± 4.3%
5,CC(C)(Cc1ccc(Oc2ccc(S(C)(=O)=O)cc2)cc1)NC[C@H](O)COc1ccccc1-n1cccc1.Cl [Example 265],42.7 ± 9.4%
6,CC(C)(Cc1ccc(Oc2ccc(C(N)=O)nc2)cc1)NC[C@H](O)COc1ccccc1-n1cccc1.Cl [Example 266],36.7 ± 6.8%
7,CC(C)(Cc1ccc(Oc2cccnc2C#N)cc1)NC[C@H](O)COc1ccccc1-n1cccc1.Cl [Example 268],54.6 ± 8.2%
8,CC(C)(Cc1ccc(Oc2ccc(C(N)=O)cc2)cc1)NC[C@H](O)COc1ccccc1-n1cccc1.Cl [Example 269],41.3 ± 4.2%
9,CC(C)(Cc1ccc(Oc2ccccc2C(N)=O)cc1)NC[C@H](O)COc1ccccc1-n1cccc1.Cl [Example 270],56.4 ± 8.3%
10,CC(C)(Cc1ccc(Oc2ncccc2C(N)=O)cc1)NC[C@H](O)COc1ccccc1-n1ccc(C#N)c1.Cl [Example 271],39.0 ± 0.6%
11,CC(C)(Cc1ccc(Oc2ccc(C(N)=O)cn2)cc1)NC[C@H](O)COc1ccccc1-n1ccc(C#N)c1.Cl [Example 272],35.7 ± 2.8%
12,CC(C)(Cc1ccc(Oc2ncccc2C(N)=O)cc1)NC[C@H](O)COc1ccccc1-n1ccc(C=O)c1 [Example 273],40.3 ± 0.5%
13,CC(C)(Cc1ccc(Oc2ccc(C(N)=O)cn2)cc1)NC[C@H](O)COc1ccccc1-n1ccc(C=O)c1 [Example 274],38.8 ± 1.4%
14,CC(C)(Cc1ccc(Oc2ccc(C#N)cn2)cc1)NC[C@H](O)COc1ccccc1-c1cccs1.O=C(O)C(=O)O [Example 285],24.6 ± 3.8%
15,CC(C)(Cc1ccc(Oc2ccccc2C#N)cc1)NC[C@H](O)COc1ccccc1-c1cccs1.O=C(O)C(F)(F)F [Example 286],72.1 ± 4.5%
16,CC(C)(Cc1ccc(Oc2ccncc2)cc1)NC[C@H](O)COc1ccccc1-c1ccno1.O=C(O)C(F)(F)F [Example 287],39.9 ± 4.9%
17,CCOC(=O)c1ccc(Oc2ccc(CC(C)(C)NC[C@H](O)COc3ccccc3-c3ccno3)cc2)c(Cl)c1.O=C(O)C(F)(F)F [Example 288],52.9 ± 7.4%
18,CC(C)(Cc1ccc(-c2ccccc2C#N)cc1)NC[C@H](O)COc1ccccc1-c1ccno1.O=C(O)C(=O)O [Example 289],37.4 ± 7.2%
19,CC(C)(Cc1ccccc1-c1ccc(C#N)cc1)NC[C@H](O)COc1ccccc1-c1ccno1.Cl [Example 290],22.7 ± 1.7%
20,CC(C)(Cc1ccc(Oc2cccnc2C#N)cc1)NC[C@H](O)COc1ccccc1-c1ccon1.Cl [Example 297],74.5 ± 6.7%
21,CC(C)(Cc1ccc(Oc2ccc(C(N)=O)nc2)cc1)NC[C@H](O)COc1ccccc1-c1ccon1.Cl [Example 298],54.5 ± 0.8%
22,CC(C)(Cc1ccc(Oc2ccc(C(N)=O)cc2)cc1)NC[C@H](O)COc1ccccc1-c1ccon1.Cl [Example 299],45.9 ± 3.9%
